Experimental data published in patent publication US9517993B2, “Antagonists of the toll-like receptor 1/2 complex” (THE REGENTS OF THE UNIVERSITY OF COLORADO, a body corporate, priority 2012, dated 2016).

How the values were obtained:
TLR7 = biological target: T1, TLR7 (Mus musculus, UniProt P58681); assay: RAW 264.7 nitric oxide TLR selectivity assay (R848); assay type: cell-based; settings: 100 nM R848
T1 construct: RAW 264.7 Cells Nitric Oxide TLR Selectivity Assay; endogenous in cells; host or cells: RAW 264.7
T1 sequence (P58681 27-1050): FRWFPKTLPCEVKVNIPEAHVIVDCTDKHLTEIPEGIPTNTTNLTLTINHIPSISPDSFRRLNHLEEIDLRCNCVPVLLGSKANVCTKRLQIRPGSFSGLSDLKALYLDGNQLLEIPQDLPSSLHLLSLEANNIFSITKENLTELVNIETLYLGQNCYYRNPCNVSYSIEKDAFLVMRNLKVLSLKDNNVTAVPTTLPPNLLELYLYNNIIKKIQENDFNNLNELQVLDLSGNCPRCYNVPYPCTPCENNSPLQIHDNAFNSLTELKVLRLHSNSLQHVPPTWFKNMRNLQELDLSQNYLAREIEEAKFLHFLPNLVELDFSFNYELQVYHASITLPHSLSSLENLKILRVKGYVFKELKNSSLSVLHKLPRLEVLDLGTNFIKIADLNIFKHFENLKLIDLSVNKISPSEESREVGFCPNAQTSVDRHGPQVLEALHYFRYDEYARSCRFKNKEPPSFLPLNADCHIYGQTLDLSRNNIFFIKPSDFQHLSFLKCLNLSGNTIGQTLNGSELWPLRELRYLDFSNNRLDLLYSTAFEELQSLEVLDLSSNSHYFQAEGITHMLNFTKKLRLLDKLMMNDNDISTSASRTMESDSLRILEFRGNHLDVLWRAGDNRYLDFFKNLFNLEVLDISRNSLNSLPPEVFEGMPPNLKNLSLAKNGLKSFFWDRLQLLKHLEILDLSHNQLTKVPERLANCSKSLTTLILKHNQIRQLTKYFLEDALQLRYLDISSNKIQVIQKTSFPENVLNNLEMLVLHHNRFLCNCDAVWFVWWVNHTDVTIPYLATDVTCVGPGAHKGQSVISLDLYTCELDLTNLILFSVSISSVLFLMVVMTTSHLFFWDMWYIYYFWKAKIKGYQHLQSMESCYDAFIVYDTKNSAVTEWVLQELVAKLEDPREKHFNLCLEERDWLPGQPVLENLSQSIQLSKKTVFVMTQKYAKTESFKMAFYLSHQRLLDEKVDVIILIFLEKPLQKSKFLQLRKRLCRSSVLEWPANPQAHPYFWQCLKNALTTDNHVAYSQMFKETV
Protocol: RAW 264.7 (Mouse leukaemic monocyte macrophage cell line) cells were grown in RPMI 1640 medium, supplemented with 10% FBS, penicillin (100 U/mL) and streptomycin ([…]). RAW cells were then planted in 96-well plates at 80,000 cells per well and grown for 24 h in the media descried previously at 37° C. in a 5% CO2 humidified incubator. After 24 h, non-adherent cells and media were removed and replaced with fresh unsupplemented RPMI 1640 medium. The adherent macrophages were treated with Pam3CSK4 (CAS No. 112208-00-1; a synthetic triacylated lipopeptide (LP) that mimics the acylated amino terminus of bacterial LPs) (200 ng/mL) (Invivogen, USA), an agonist of TLR1/2, and then added different concentrates of potential inhibitor. Two rows were only treated with Pam3CSK4 as control. […] The reaction was quenched by addition of 5 μL of a 3 M aqueous NaOH solution and the plate was read on Beckman Coulter DTX880 reader (Beckman Coulter, Calif., USA) with excitation at 365 nm and emission at 450 nm. The nitrite (a stable metabolite of nitric oxide) concentration was determined from a nitrite standard curve. The inhibition rate (%) of NO release was determined using the following formula: Inhibition (%)=[Pam3CSK4(OD450) […]]/[Pam3CSK4 (OD450)−Control (OD450)]×100. The IC50 values for both inhibition and cytotoxicity were determined graphically using software Origin v7.5. […]

TLR1/2 = biological target: T2, TLR1/2 (Mus musculus, UniProt Q9EPQ1+Q9QUN7); assay: In vitro TLR1/2 inhibition assay (nitric oxide, Pam3CSK4-activated RAW 264.7 macrophages); assay type: cell-based; settings: for TLR1/2 inhibitory activity (in words, SAR and specificity): RAW 264.7 NO assay, Pam3CSK4; for IC50: RAW 264.7 cells, Pam3CSK4 200 ng/mL, nitric oxide readout, read-out: IC50, inhibition of Pam3CSK4-induced TLR1/2 activation (NO assay)
T2 construct: production of NO in RAW 264.7 macrophage cells; endogenous in cells; host or cells: RAW 264.7
Protocol: To identify novel TLR1/2 complex inhibitors, a cell-based assay was employed to screen the NCI-2 diversity small-molecule library. This 1,363 compound library was chosen from the larger NCI library, which has more than 140,000 compounds, on the basis of availability, purity, and other pharmacological features, such as relative rigidity, number of rotatable bonds and chiral centers, the absence of obvious leaving groups and weakly bounded heteroatoms, etc. Screening was performed in a 96-well plate format using a previously established high-throughput nitric oxide (NO) assay. See e.g. Cheng et al., Small molecule inhibitors of the TLR3/dsRNA complex, J. Am. Chem. Soc. (2011), 133:3764-67, which is herein incorporated by reference in its entirety. Briefly, synthetic triacylated lipoprotein Pam3CSK4 was employed to selectively activate TLR1/2 signaling, resulting in the expression of inducible nitric oxide synthase (iNOS) and the production of NO in RAW 264.7 macrophage cells. NO levels were monitored as an indicator of Pam3CSK4-induced TLR1/2 activation to evaluate the compound's inhibitory activity.
RAW 264.7 (Mouse leukaemic monocyte macrophage cell line) cells were grown in RPMI 1640 medium, supplemented with 10% FBS, penicillin (100 U/mL) and streptomycin ([…]). RAW cells were then planted in 96-well plates at 80,000 cells per well and grown for 24 h in the media descried previously at 37° C. in a 5% CO2 humidified incubator. After 24 h, non-adherent cells and media were removed and replaced with fresh unsupplemented RPMI 1640 medium. The adherent macrophages were treated with Pam3CSK4 (CAS No. 112208-00-1; a synthetic triacylated lipopeptide (LP) that mimics the acylated amino terminus of bacterial LPs) (200 ng/mL) (Invivogen, USA), an agonist of TLR1/2, and then added different concentrates of potential inhibitor. Two rows were only treated with Pam3CSK4 as control. Plates were then incubated for an additional 24 h. Following incubation 100 μL of media was removed and added to flat black 96-well microfluor plates (Thermo Scientific, MA, USA). To each well, 10 μL of 2,3-diaminonaphthalene (0.05 mg/mL in 0.62 M aqueous HCl solution) was added and incubated for 15 min in the dark. The reaction was quenched by addition of 5 μL of a 3 M aqueous NaOH solution and the plate was read on Beckman Coulter DTX880 reader (Beckman Coulter, Calif., USA) with excitation at 365 nm and emission at 450 nm. The nitrite (a stable metabolite of nitric oxide) concentration was determined from a nitrite standard curve. The inhibition rate (%) of NO release was determined using the following formula: Inhibition (%)=[Pam3CSK4(OD450) […]]/[Pam3CSK4 (OD450)−Control (OD450)]×100. The IC50 values for both inhibition and cytotoxicity were determined graphically using software Origin v7.5.

T2 sequence (Q9EPQ1 26-795): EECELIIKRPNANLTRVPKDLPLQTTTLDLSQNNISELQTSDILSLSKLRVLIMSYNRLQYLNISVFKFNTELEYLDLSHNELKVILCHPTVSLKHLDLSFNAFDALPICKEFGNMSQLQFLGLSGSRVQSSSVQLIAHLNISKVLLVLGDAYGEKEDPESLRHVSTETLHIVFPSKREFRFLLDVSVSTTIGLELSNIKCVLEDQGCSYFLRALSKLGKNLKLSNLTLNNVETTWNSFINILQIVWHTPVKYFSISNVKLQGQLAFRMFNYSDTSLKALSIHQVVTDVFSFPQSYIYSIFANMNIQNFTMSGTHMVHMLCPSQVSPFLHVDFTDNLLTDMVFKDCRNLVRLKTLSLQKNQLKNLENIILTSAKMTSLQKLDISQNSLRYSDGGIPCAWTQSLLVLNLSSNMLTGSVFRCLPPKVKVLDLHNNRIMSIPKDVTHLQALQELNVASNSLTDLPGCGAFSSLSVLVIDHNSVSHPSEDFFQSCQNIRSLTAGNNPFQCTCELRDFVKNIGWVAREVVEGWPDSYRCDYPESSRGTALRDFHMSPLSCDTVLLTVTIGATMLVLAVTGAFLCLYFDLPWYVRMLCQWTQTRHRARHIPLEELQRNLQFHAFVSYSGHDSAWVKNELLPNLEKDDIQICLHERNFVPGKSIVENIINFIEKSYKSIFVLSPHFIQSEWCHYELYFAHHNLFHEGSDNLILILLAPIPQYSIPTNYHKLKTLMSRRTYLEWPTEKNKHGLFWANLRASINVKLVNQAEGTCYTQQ
T2 sequence (Q9QUN7 25-784): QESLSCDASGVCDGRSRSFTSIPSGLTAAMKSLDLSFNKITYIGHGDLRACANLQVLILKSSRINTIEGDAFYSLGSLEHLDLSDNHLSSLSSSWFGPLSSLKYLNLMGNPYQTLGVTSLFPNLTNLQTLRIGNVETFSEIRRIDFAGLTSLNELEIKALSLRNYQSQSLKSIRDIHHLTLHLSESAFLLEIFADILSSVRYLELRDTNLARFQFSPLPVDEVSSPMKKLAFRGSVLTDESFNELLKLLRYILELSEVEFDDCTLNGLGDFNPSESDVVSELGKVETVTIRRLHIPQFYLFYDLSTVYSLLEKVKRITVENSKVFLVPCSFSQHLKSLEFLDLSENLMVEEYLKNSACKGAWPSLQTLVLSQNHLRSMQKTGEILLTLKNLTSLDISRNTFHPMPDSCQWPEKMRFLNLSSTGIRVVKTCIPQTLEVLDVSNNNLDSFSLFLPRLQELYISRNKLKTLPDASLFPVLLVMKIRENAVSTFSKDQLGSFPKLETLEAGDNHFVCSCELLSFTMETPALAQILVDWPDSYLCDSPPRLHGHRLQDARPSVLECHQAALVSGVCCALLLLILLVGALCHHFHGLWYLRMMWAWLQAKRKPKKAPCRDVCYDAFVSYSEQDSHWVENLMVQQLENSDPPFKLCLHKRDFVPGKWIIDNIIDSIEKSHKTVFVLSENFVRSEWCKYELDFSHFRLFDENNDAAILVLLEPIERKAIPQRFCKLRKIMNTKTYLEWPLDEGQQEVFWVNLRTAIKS

Row | SMILES | inhibition of TLR7 signaling (TLR7; 3 μM compound) | TLR1/2 inhibitory activity (in words, SAR and specificity) (TLR1/2) | IC50 (TLR1/2) | inhibition of TLR7 signaling (TLR7; 0.5 μM compound) | TLR1/2 inhibitory activity (in words, SAR and specificity) (TLR1/2; listed as Compound 17)
1 | O=c1c(O)cccc2cc(O)c(O)c(O)c12 [NCI35676, purpurogallin, reference compound] | no other homologous TLRs | specifically inhibited TLR1/2 signaling | 2450 ± 250 nM |  | 
2 | CCCCCCOC(=O)c1cc(O)c(=O)c2c(O)c(O)c(OC)cc2c1 [compound 17, Hexyl 3,4,6-trihydroxy-2-methoxy-5-oxo-5H-benzo[7]annulene-8-carboxylate] |  | highest inhibitory activity | 580 ± 90 nM | without affecting other TLRs | inhibit TLR1/2 signaling
